From publication PMC4865820, “Branched Peptide, B2088, Disrupts the Supramolecular Organization of Lipopolysaccharides and Sensitizes the Gram-negative Bacteria” (Scientific Reports, 2016)
In brackets after ≈: the same amount, converted by molar mass. Where two headings read alike, the source gives them in different places. Marks after values point to notes of the source that are not given here. Positions of bridges follow the written chain, without caps; N, C: chain ends. Non-standard residues stand in square brackets, D forms with d. Residues, ends and D or L forms follow the SMILES beside them. Chains are numbered I, II in the order given. *: point of attachment. X1 = CC[C@H](C)CCCCC(=O)*; Dab = NCC[C@H](N)C(=O)O

Legend:
[1] = tested on: LPS (E. coli serotype 055:B5); experiment: BODIPY TR cadaverine (BC) displacement assay with LPS; assay type: binding; conditions: 5 mM HEPES pH 7.4, duplicates; for ED50 (50% displacement of BC dye from LPS; also called BC50): fluorescence ex 580/em 620 nm, with respect to PMB; for EC50: no unit in table, ED50 values in μM, read-out: BC50 (LPS binding)
Method in brief: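 Peptides (0.02–25.6 μM, two-fold dilutions) mixed 1:1 with BODIPY TR cadaverine:LPS (E. coli 055:B5) mixture in 5 mM HEPES pH 7.4; fluorescence at 580/620 nm. Displacement normalized to polymyxin B (Fmax) and probe:LPS alone (F0); ED50 from curve fit, duplicates.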

P. aeruginosa ATCC 27853 = experiment: microbe, parasite or virus in culture; assay type: cell-based
Method in brief: (§1)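 Peptides two-fold diluted in Mueller-Hinton Broth (0.0976–50 μg/ml final) against 10^5–10^6 CFU/ml inoculum, 37 °C for 24 h with OD600 monitored every 30 min. MIC = lowest concentration with no visible growth; two independent duplicates.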

K. pneumoniae ATCC10031 = assay type: cell-based
Method in brief: as §1

P. aeruginosa 23155 = assay type: cell-based
Method in brief: as §1

K. pneumoniae 07955 = experiment: microbe, parasite or virus in culture; assay type: cell-based; conditions: for MIC: Klebsiella pneumoniae, 07955, individual peptide/antibiotics, read-out: MIC against K. pneumoniae 07955
P. aeruginosa DR4877/07 = assay type: cell-based; conditions: for Fractional inhibitory concentration of peptide/PMB, combination with Chloarm / Fractional inhibitory concentration of peptide/PMB, combination with Erythro / Fractional inhibitory concentration of peptide/PMB, combination with Levo / Fractional inhibitory concentration of peptide/PMB, combination with Tobra: first number in parenthesis; for Fold decrease in the MIC of antibiotics at sub-lethal/sub-inhibitory concentrations of B2088: multidrug resistant P. aeruginosa 4877; for Fractional inhibitory concentration of antibiotic, Chloarm combination / Fractional inhibitory concentration of antibiotic, Erythro combination / Fractional inhibitory concentration of antibiotic, Levo combination / Fractional inhibitory concentration of antibiotic, Tobra combination: second number in parenthesis; for FICI of B2088-antibiotic combination: lowest FICI reported, two independent duplicates
Method in brief: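 Checkerboard combinations of peptide and antibiotic, each 2-fold diluted up to 1× MIC in MHB, were tested against ~10^6 CFU/ml final inoculum. Plates were incubated 24 h at 37 °C, with growth read at OD600. FICI was the sum of the combination-to-alone MIC ratios for each agent, and the lowest FICI from duplicate experiments was reported.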

[2] = MIC of B2088 6.25 μg/ml, MHB, ~10^6 CFU/ml, 37 °C, 24 h
[3] = MHB, 10^5–10^6 CFU/ml, 37 °C, 24 h, two independent duplicates

## CC(C)[C@H](NC(=O)[C@H](CCCCN)NC(=O)[C@H](CCCNC(=N)N)NC(=O)CNC(=O)[C@@H](N)CCCNC(=N)N)C(=O)N[C@H](C(=O)N[C@@H](CCCNC(=N)N)C(=O)N[C@@H](CCCNC(=N)N)C(=O)NCCCC[C@H](NC(=O)[C@H](CCCNC(=N)N)NC(=O)[C@H](CCCNC(=N)N)NC(=O)[C@@H](NC(=O)[C@@H](NC(=O)[C@H](CCCCN)NC(=O)[C@H](CCCNC(=N)N)NC(=O)CNC(=O)[C@@H](N)CCCNC(=N)N)C(C)C)C(C)C)C(=O)N[C@@H](CCCCN)C(=O)O)C(C)C [B2088] (I: H-RGRKVVRRKK-OH / II: H-RGRKVVRR; amide I:9-II:C; N-terminus and C-terminus assumed)
[1]
  ED50 (50% displacement of BC dye from LPS; also called BC50): 1920 ± 30 nM
  EC50: 1.9 ± 0.1 µM
P. aeruginosa ATCC 27853; ATCC 27853, 24 h
  Minimum Inhibitory Concentration against P. aeruginosa ATCC 27853: 2.7 µM
K. pneumoniae ATCC10031; ATCC10031, 24 h
  Minimum Inhibitory Concentration against K. pneumoniae ATCC10031: 1.4 µM
P. aeruginosa 23155; 23155, 24 h
  Minimum Inhibitory Concentration against P. aeruginosa 23155: 1.4 µM
K. pneumoniae 07955; 07955, 24 h
  MIC against K. pneumoniae 07955: 6.25 µg/mL (≈ 2.73 µM)
P. aeruginosa DR4877/07
  Fractional inhibitory concentration of peptide/PMB, combination with Chloarm: (0.25,0.25)
  Fractional inhibitory concentration of peptide/PMB, combination with Erythro: (0.5,0.5) ^‡
  Fractional inhibitory concentration of peptide/PMB, combination with Levo: (0.5,0.5)
  Fractional inhibitory concentration of peptide/PMB, combination with Tobra: (0.25,0.25)
  Fold decrease in the MIC of antibiotics at sub-lethal/sub-inhibitory concentrations of B2088: 2-8 fold
  Fractional inhibitory concentration of antibiotic, Chloarm combination: (0.25,0.25)
  Fractional inhibitory concentration of antibiotic, Erythro combination: (0.5,0.5) ^‡
  Fractional inhibitory concentration of antibiotic, Levo combination: (0.5,0.5)
  Fractional inhibitory concentration of antibiotic, Tobra combination: (0.25,0.25)

## NC[C@H]1O[C@H](O[C@H]2[C@H](O)[C@@H](O[C@H]3O[C@H](CO)[C@@H](O)[C@H](N)[C@H]3O)[C@H](N)C[C@@H]2N)[C@H](N)C[C@@H]1O [Tobramycin]
K. pneumoniae 07955
  MIC: 25 µg/mL (≈ 53.5 µM)
P. aeruginosa DR4877/07
  FICI of polymyxin B-antibiotic combination: 1.0
  FICI of B2088-antibiotic combination: 0.5
  Fold decrease in the MIC of antibiotics at sub-lethal/sub-inhibitory concentrations of B2088: 4 fold
P. aeruginosa DR4877/07; [2]
  MIC of antibiotics in the presence of ¼× sub-MIC of B2088: 200 µg/mL
  MIC of antibiotics in the presence of ½× sub-MIC of B2088: 200 µg/mL

## COc1c(N2CCNC(C)C2)c(F)cc2c(=O)c(C(=O)O)cn(C3CC3)c12 (centres unmarked) [Gatifloxacin]
K. pneumoniae 07955
  MIC: 1.56 µg/mL (≈ 4.16 µM)
P. aeruginosa DR4877/07
  FICI of polymyxin B-antibiotic combination: 0.63
  FICI of B2088-antibiotic combination: 0.63
P. aeruginosa DR4877/07; [2]
  MIC of antibiotics in the presence of ¼× sub-MIC of B2088: 15.6 µg/mL
  MIC of antibiotics in the presence of ½× sub-MIC of B2088: 7.8 µg/mL
  MIC of antibiotics in the presence of ⅛× sub-MIC of B2088: 15.6 µg/mL

## CC[C@H](C)CCCCC(=O)N[C@@H](CCN)C(=O)N[C@H](C(=O)N[C@@H](CCN)C(=O)N[C@H]1CCNC(=O)[C@H]([C@@H](C)O)NC(=O)[C@H](CCN)NC(=O)[C@H](CCN)NC(=O)[C@H](CC(C)C)NC(=O)[C@@H](Cc2ccccc2)NC(=O)[C@H](CCN)NC1=O)[C@@H](C)O [Polymyxin B, polymyxin B, reference compound] (X1-[Dab]T[Dab][Dab][Dab][dF]L[Dab][Dab]T; lactam 4-C (inferred); N-terminus assumed)
[1]
  ED50 (50% displacement of BC dye from LPS; also called BC50): 1560 ± 20 nM
  EC50: 1.56 ± 0.02 µM
P. aeruginosa ATCC 27853; [3]
  Minimum Inhibitory Concentration against P. aeruginosa ATCC 27853: 0.57 µM
K. pneumoniae ATCC10031; [3]
  Minimum Inhibitory Concentration against K. pneumoniae ATCC10031: 0.57 µM
P. aeruginosa 23155; [3]
  Minimum Inhibitory Concentration against P. aeruginosa 23155: 0.57 µM
P. aeruginosa DR4877/07
  Fractional inhibitory concentration of peptide/PMB, combination with Chloarm: 0.125
  Fractional inhibitory concentration of peptide/PMB, combination with Erythro: 0.25
  Fractional inhibitory concentration of peptide/PMB, combination with Levo: 0.5
  Fractional inhibitory concentration of peptide/PMB, combination with Tobra: (0.5,0.5)
  Fractional inhibitory concentration of antibiotic, Chloarm combination: 0.5
  Fractional inhibitory concentration of antibiotic, Erythro combination: 0.5
  Fractional inhibitory concentration of antibiotic, Levo combination: 0.25
  Fractional inhibitory concentration of antibiotic, Tobra combination: (0.5,0.5)
P. aeruginosa DR4877/07; peptide + chloramphenicol
  Fractional Inhibitory Concentration Index with Chloarm: 0.63
P. aeruginosa DR4877/07; peptide + erythromycin
  Fractional Inhibitory Concentration Index with Erythro: 0.75
P. aeruginosa DR4877/07; peptide + levofloxacin
  Fractional Inhibitory Concentration Index with Levo: 0.75
P. aeruginosa DR4877/07; peptide + tobramycin
  Fractional Inhibitory Concentration Index with Tobra: 1.0
